Results as given in patent US9758787B2, “Engineering microorganisms” (DSM NUTRITIONAL PRODUCTS AG, priority 2011, dated 2017).

Key:
[1] = tested on: parental strain (the wild type strain) ONC-T18; test: Zeocin sensitivity, spotted colonies on agar plates, parental strain (Example 8); format: cell-based, Thraustochytrium sp. ONC-T18; details: ONC-T18-GM0 agar plates, 18 g/L sea salt
Description: (§1) A very small amount of inoculum of zeocin-resistant strains that had been transferred three times via colony passages on zeocin/ONC-T18-GM0 agar plates (as well as their parental strain or the wild type strain) was picked from colonies using a 10 μL pipette tip and re-suspended in 50 μL sterilized water in a 200 μL PCR tube. One μL of the cell suspension was spotted on ONC-T18-GM0 agar plates containing 18 g/L sea salt (15 g/L agar) and zeocin at a concentration ranging from 0 to 5000 μg/mL (Invitrogen, CA, USA). The diameters of the spotted colonies were measured on day 1, day 3, day 5, day 7, and day 8.

[2] = tested on: transformed ONC-T18 strains; test: Growth on zeocin plates after six colony passages without zeocin, transformed strains (Example 12); format: cell-based, Thraustochytrium sp. ONC-T18; details: zeocin 200 μg/mL media
Excerpt: (§2) Transgene stability is important for certain applications of genetic engineering in industrial microbial strain improvement programs where microorganisms are used in pharmaceutical or industrial processes, and where product quantity and quality are paramount. We therefore carried out transgene stability estimate assays of transformed ONC-T18 strains. As for the growth rate assays described in Example 7, inocula of four strains of each transformation as well as their ancestor wild type strains were spotted on ONC-T18-GM0 agar plates in the absence of zeocin and incubated at 25° C. for seven days. (Each transformation had been performed using one of the five different plasmid constructs, each of which bears various zeocin-resistant gene expression cassettes driven by a combination of different promoters and terminators). Then, using the same method, strains were transferred on a new fresh ONC-T18-GM0 agar plate and incubated at 25° C. for 7 days; colony passages were carried out 6 times. Finally, strains were transferred back onto ONC-T18-GM0 agar plates either without or with zeocin at a concentration of 200 μg/mL media.

[3] = tested on: Thraustochytrium sp. ONC-T18; test: Effects of zeocin and salinity on colony numbers and colony diameter of ONC-T18 (Example 4); format: cell-based; details: for colony numbers: 10 days; for colony numbers / colony growth rates (diameter in mm): mean of two plates
Description: One hundred μL of ONC-T18 cell suspension diluted at 1:500 from a 2-day culture were spread onto ONC-T18-GM0 plates containing various concentrations of antibiotic zeocin and sea salt. Inoculated plates were incubated in a 25° C. incubator for 10 days. The numbers of the colonies on each plate were counted. […] In plates containing 8.5 g/L sea salt without zeocin, only one colony was observed. In plates containing 18 g/L sea salt without zeocin, colony numbers were similar to that of plates containing 35 g/L sea salt without zeocin. […] Therefore, for this work, 18 g/L sea salt was used to make ONC-T18-GM0 for selection of ONC-T18 transformants transformed with constructs bearing a zeocin-resistant gene expression cassette.

[4] = tested on: Thraustochytrium sp. ONC-T18; test: Effects of different antibiotics on growth of ONC-T18 on ONC-T18-GM0 agar plates (Example 3); format: cell-based; design: sensitivity of ONC-T18 cells to zeocin: dose or concentration left out as unconfirmed
Description: Thraustochytrium sp. ONC-T18 was grown on agar plates (20 g agar per liter ONC-T18-GM0). One loop of inoculum of ONC-T18 was inoculated into 50 mL of liquid ONC-T18-GM0, and the culture was incubated in a shaker incubator at 25° C. at 250 rpm for 36 hours. Half a milliliter of the culture was transferred into a 1.5 mL tube and vortexed at full speed for 30 seconds to break down cell clusters, then diluted in 50 mL sterilized water. One hundred microliters of the resulting solution was spread onto each ONC-T18-GM0 medium plate. Each plate contained one of various antibiotics at one of various concentrations. Plates were incubated at 25° C. and emergence and development of colonies were observed daily.

[5] = tested on: transformed ONC-T18 strains bearing the zeocin-resistance gene expression cassette; test: Zeocin sensitivity, spotted colonies on agar plates, transformed strains (Example 8); format: cell-based, Thraustochytrium sp. ONC-T18; details: 5000 μg/mL zeocin
Description: as §1

[6] = tested on: wild type strain of ONC-T18; test: Zeocin as mutagenic agent on ONC-T18 agar plates (Example 13); format: cell-based, Thraustochytrium sp. ONC-T18
Description: The marine protist wild type strain of ONC-T18 was chosen as a model system to test if zeocin would be effective to induce mutagenesis in this strain. One full loop of the inocula of ONC-T18, growing in the agar plates containing ONC-T18-GM0 medium[5 g/L yeast extract, 5 g/L peptone, 10 g/L D(+)-glucose, 35 g/L artificial sea salt, 1.25 mg/L trace elements (5 g/L NaH2PO4.H2O, 3.15 g/L FeCl3.6H2O, 4.36 g/L Na2EDTA.2H2O, 0.6125 mg/L CuSO4.5H2O, 0.0597 g/L Na2MoO4.2H2O, 0.022 g/L ZnSO4.7H2O, 0.01 g/L CoCl2.6H2O, 0.18 g/L MnCl2.4H2O, 13 μg/L H2SeO3, 2.7 mg/L NiSO4.6H2O, 1.84 mg/L Na3VO4 and 1.94 mg/L K2CrO4), 1.25 mg/L vitamins (1 mg/L vitamin B12, 1 mg/L biotin, 0.20 g/L thiamine HCl) and 20 g agar per liter], was inoculated into 50 mL liquid ONC-T18-GM0 medium, and incubated in a shaker incubator at 25° C. at 250 rpm for 36 hours. Half a milliliter of culture was transferred into a 1.5 mL tube and vortexed at full speed for 30 seconds, and then diluted in 50 mL sterilized water. One hundred microliters of the diluted inocula were respectively spread on the agar plates containing zeocin at various concentrations (0, 10, 30, 50, and 100 μg/mL). Plates were incubated at 25° C. incubator. The emergence and development of the colonies were observed daily. […] Under these conditions, zeocin was effective within the range of at least 10-200 μg/mL; higher concentrations may well also be effective. For example, concentrations in the range of 200-500 μg/mL or higher could work. […] Under the particular conditions utilized in the present Example, zeocin worked best at 50 μg/mL.

[7] = tested on: wild type ONC-T18 strains; test: Growth on zeocin plates after six colony passages without zeocin, wild type (Example 12); format: cell-based, Thraustochytrium sp. ONC-T18; details: zeocin 200 μg/mL media
Excerpt: as §2

[8] = cited from earlier work

Structure (SMILES): Cc1c(N)nc([C@H](CC(N)=O)NC[C@H](N)C(N)=O)nc1C(=O)N[C@H](C(=O)N[C@H](C)[C@@H](O)[C@H](C)C(=O)N[C@H](C(=O)NCCC1=N[C@@H](c2nc(C(=O)NCCCCN=C(N)N)cs2)CS1)[C@@H](C)O)[C@@H](O[C@@H]1O[C@@H](CO)[C@@H](O)[C@H](O)[C@@H]1O[C@H]1O[C@H](CO)[C@@H](O)[C@H](OC(N)=O)[C@@H]1O)c1cnc[nH]1 [Zeocin, phleomycin D1]
- zeocin concentration at which the parental strain grew [1]: ≤ 30 µg/mL
- growth of transformed strains [2]: only the transformed strains grew well
- zeocin concentration that completely inhibited growth of ONC-T18 ([3]; ONC-T18-GM0 agar plates containing 18 g/L sea salt): 30 µg/mL
- zeocin concentration needed for complete inhibition of ONC-T18 ([3]; ONC-T18-GM0 agar plates containing 35 g/L sea salt): 100 µg/mL
- colony numbers ([3]; salt 5 g/L, zeocin 10 μg/mL): 0
- colony growth rates (diameter in mm) ([3]; salt 5 g/L, zeocin 10 μg/mL): 0 mm
- colony numbers ([3]; salt 5 g/L, zeocin 30 μg/mL): 0
- colony growth rates (diameter in mm) ([3]; salt 5 g/L, zeocin 30 μg/mL): 0 mm
- colony numbers ([3]; salt 5 g/L, zeocin 50 μg/mL): 0
- colony growth rates (diameter in mm) ([3]; salt 5 g/L, zeocin 50 μg/mL): 0 mm
- colony numbers ([3]; salt 5 g/L, zeocin 100 μg/mL): 0
- colony growth rates (diameter in mm) ([3]; salt 5 g/L, zeocin 100 μg/mL): 0 mm
- colony numbers ([3]; salt 8.5 g/L, zeocin 10 μg/mL): 0
- colony growth rates (diameter in mm) ([3]; salt 8.5 g/L, zeocin 10 μg/mL): 0 mm
- colony numbers ([3]; salt 8.5 g/L, zeocin 30 μg/mL): 0
- colony growth rates (diameter in mm) ([3]; salt 8.5 g/L, zeocin 30 μg/mL): 0 mm
- colony numbers ([3]; salt 8.5 g/L, zeocin 50 μg/mL): 0
- colony growth rates (diameter in mm) ([3]; salt 8.5 g/L, zeocin 50 μg/mL): 0 mm
- colony numbers ([3]; salt 8.5 g/L, zeocin 100 μg/mL): 0
- colony growth rates (diameter in mm) ([3]; salt 8.5 g/L, zeocin 100 μg/mL): 0 mm
- colony numbers ([3]; salt 18 g/L, zeocin 10 μg/mL): 11
- colony growth rates (diameter in mm) ([3]; salt 18 g/L, zeocin 10 μg/mL): 4.1 mm
- colony numbers ([3]; salt 18 g/L, zeocin 30 μg/mL): 0
- colony growth rates (diameter in mm) ([3]; salt 18 g/L, zeocin 30 μg/mL): 0 mm
- colony numbers ([3]; salt 18 g/L, zeocin 50 μg/mL): 0
- colony growth rates (diameter in mm) ([3]; salt 18 g/L, zeocin 50 μg/mL): 0 mm
- colony numbers ([3]; salt 18 g/L, zeocin 100 μg/mL): 0
- colony growth rates (diameter in mm) ([3]; salt 18 g/L, zeocin 100 μg/mL): 0 mm
- colony numbers ([3]; salt 35 g/L, zeocin 10 μg/mL): 22.5
- colony growth rates (diameter in mm) ([3]; salt 35 g/L, zeocin 10 μg/mL): 4.1 mm
- colony numbers ([3]; salt 35 g/L, zeocin 30 μg/mL): 11
- colony growth rates (diameter in mm) ([3]; salt 35 g/L, zeocin 30 μg/mL): 1.9 mm
- colony numbers ([3]; salt 35 g/L, zeocin 50 μg/mL): 5
- colony growth rates (diameter in mm) ([3]; salt 35 g/L, zeocin 50 μg/mL): 0.6 mm
- colony numbers ([3]; salt 35 g/L, zeocin 100 μg/mL): 0
- colony growth rates (diameter in mm) ([3]; salt 35 g/L, zeocin 100 μg/mL): 0 mm
- sensitivity of ONC-T18 cells to zeocin [4]: highly sensitive
- effect on growth of ONC-T18 (summary in words) ([4]; ONC-T18-GM0 agar plates): significantly inhibited the growth
- growth of transformed strains ([5]; compared with 1000 μg/mL or less): most strains grew remarkably slower
- zeocin resistance of some transformant strains ([5]; e.g., FIG. 13 legend): highly resistant
- colonies seen per plate ([6]; 50 μg/mL zeocin): Only a few of colonies were seen
- colony sectors with visible colony-morphology changes ([6]; 50 μg/mL zeocin): observed in some of the colonies
- colony numbers per plate ([6]; 10, 30, and 50 μg/mL zeocin): gradually reduced
- sizes of the colonies ([6]; 30 to 50 μg/mL zeocin, six days post inoculation): gradually decreased
- concentration at which zeocin worked best as mutagen ([6]; conditions of Example 13): 50 µg/mL
- concentration range in which zeocin was effective as mutagen ([6]; conditions of Example 13): 10 to 200 µg/mL
- growth of wild type strains [7]: none of the wild type strains were able to grow
- stability of zeocin ([8]; high salt concentrations): unstable at high salt concentrations
- solubility of zeocin ([8]; water): water soluble
